Source: patent publication US20250326765A1, “PDE4B INHIBITOR AND USE THEREOF” (XIZANG HAISCO PHARMACEUTICAL CO., LTD., priority 2022, published 2025)

Assays:
PDE4B1 = molecular target: T1, PDE4B1 (Homo sapiens, UniProt Q07343); experiment: Effect of compounds on PDE4B1 activity (IMAP fluorescence polarization kit); assay type: biochemical; details: class symbols
T1 construct: purchased BPS 60041
Procedure: The IMAP Reaction Buffer containing 0.1% BSA (5×) in the kit was diluted into a 1-fold reaction buffer containing 1 mM DTT. 0.12 nM PDE4B1 (BPS, Cat #60041) was added to the 1-fold reaction buffer to form a 2-fold enzyme solution. 10 μL of the 2-fold enzyme solution was added to wells of a 384-well reaction plate. For the negative control well, 10 μL of the 1-fold reaction buffer was used instead of the enzyme solution. Centrifugation at 1000 rpm for 1 minute and incubation at room temperature for 15 minutes were carried out. 0.2 uM FAM-labeled cAMP (FAM-cAMP, Molecular Device, Cat #R7506) was added to the 1-fold reaction buffer to form a 2-fold substrate solution. 10 μL of the 2-fold substrate solution was added to each well of the 384-well reaction plate. Centrifugation at 1000 rpm for 1 minute was carried out. A reaction was carried out at room temperature for 20 minutes. IMAP Progressive Binding Buffer A (5×), IMAP Progressive Binding Buffer B (5×), and IMAP Progressive Binding Reagent (provided by IMAP FP IPP Explorer Kit) were prepared into a reaction stop solution according to the instructions for use. 60 μL of an […] reaction stop solution was added to each well of the 384-well reaction plate to stop the reaction, and the reaction product was centrifuged at 1000 rpm for 1 minute. Incubation at room temperature in the dark for 60 minutes was carried out. The mP values (Ex480/Em535 (s), Em535 (p)) were read by a microplate reader (Envision).
FP was usually represented by mP value. mP value for FP measurement=1000*(S−G*P)/(S+G*P) • S: fluorescence intensity in parallel direction • P: fluorescence intensity in perpendicular direction • G: G factor=1
(§1) [formula] • mP(sample): mP of the test compound in a reaction well • mP(negative control): mP in the negative control well • mP(positive control): mP in the positive control well
According to the calculated inhibition rate at each concentration, the IC50 value of each compound was calculated by XLFit excel add-in version 5.4.0.8 software.
Y=Bottom+(Top−Bottom)/(1+(IC50/X)^HillSlope) Fitting formula: […]

PDE4D2 = molecular target: T2, PDE4D2 (Homo sapiens, UniProt Q08499); experiment: Effect of compounds on PDE4D2 activity (fluorescence polarization kit); assay type: biochemical; details: class symbols
T2 construct: purchased BPS Bioscience 60345
T2 sequence (Q08499 303-809): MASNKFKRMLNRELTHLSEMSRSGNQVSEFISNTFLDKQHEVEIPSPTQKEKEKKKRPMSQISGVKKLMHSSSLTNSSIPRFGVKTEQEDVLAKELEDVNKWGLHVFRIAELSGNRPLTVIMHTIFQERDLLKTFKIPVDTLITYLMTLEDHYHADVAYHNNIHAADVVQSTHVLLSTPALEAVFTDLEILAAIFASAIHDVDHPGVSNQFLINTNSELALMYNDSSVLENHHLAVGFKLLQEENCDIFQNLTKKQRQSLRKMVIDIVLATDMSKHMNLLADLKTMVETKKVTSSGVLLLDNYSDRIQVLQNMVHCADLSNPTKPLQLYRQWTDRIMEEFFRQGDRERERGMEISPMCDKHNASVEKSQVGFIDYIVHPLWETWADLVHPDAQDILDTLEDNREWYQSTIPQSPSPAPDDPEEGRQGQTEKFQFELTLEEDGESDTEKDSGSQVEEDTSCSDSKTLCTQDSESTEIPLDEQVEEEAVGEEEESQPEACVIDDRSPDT
Procedure: The effect of compounds on PDE4D2 activity was detected by a fluorescence polarization kit (BPS Bioscience, Catalog #60345). During the reaction, 12.5 μL of 0.272 ng/well of an enzyme (final concentration: 0.068 ng/well) and 12.5 μL of the compound diluted in a gradient manner (DMSO concentration: 4%) were first pre-incubated at room temperature for 15 minutes, the same volume of the enzyme at the same concentration and 12.5 μL of PDE buffer containing 4% DMSO were added to the positive control well, and 25 μL of PDE buffer containing 2% DMSO was added to the negative control well. After completion, 25 μL of […] FAM-Cyclic-3′,5′-AMP (final concentration: […]) was added to each well, fully mixed, and then incubated at room temperature with slow shaking for 30 minutes. The Binding Agent was diluted with the Binding Agent Diluent (cAMP) at a ratio of 1:100 for later use, 100 μl/well of the Binding Agent dilution was taken and added to all wells of the test plate and incubated at room temperature with slow shaking for 1 hour.
After the incubation was complete, BMG LRBTECH microplate reader was used for FP detection, with Excitation at 485 nm and Emission at 520 nm. FP was usually represented by mP value.
[formula] • I∥ (S520): fluorescence intensity in parallel direction • I⊥ (P520): fluorescence intensity in perpendicular direction • G: G factor=1
as §1
According to the calculated inhibition rate at each concentration, the IC50 value of each compound was calculated by GraphPad Prism 8 software.

[1] = molecular target: T3, hERG potassium ion channel (Homo sapiens, UniProt Q12809); experiment: Test for hERG potassium ion channel (manual patch-clamp, CHO cells); assay type: cell-based; details: CHO cells stably expressing hERG, whole cell patch-clamp; read-out: IC50, inhibition of hERG potassium channel current
T3 construct: expressed in transfected cells
T3 sequence (Q12809 whole entry): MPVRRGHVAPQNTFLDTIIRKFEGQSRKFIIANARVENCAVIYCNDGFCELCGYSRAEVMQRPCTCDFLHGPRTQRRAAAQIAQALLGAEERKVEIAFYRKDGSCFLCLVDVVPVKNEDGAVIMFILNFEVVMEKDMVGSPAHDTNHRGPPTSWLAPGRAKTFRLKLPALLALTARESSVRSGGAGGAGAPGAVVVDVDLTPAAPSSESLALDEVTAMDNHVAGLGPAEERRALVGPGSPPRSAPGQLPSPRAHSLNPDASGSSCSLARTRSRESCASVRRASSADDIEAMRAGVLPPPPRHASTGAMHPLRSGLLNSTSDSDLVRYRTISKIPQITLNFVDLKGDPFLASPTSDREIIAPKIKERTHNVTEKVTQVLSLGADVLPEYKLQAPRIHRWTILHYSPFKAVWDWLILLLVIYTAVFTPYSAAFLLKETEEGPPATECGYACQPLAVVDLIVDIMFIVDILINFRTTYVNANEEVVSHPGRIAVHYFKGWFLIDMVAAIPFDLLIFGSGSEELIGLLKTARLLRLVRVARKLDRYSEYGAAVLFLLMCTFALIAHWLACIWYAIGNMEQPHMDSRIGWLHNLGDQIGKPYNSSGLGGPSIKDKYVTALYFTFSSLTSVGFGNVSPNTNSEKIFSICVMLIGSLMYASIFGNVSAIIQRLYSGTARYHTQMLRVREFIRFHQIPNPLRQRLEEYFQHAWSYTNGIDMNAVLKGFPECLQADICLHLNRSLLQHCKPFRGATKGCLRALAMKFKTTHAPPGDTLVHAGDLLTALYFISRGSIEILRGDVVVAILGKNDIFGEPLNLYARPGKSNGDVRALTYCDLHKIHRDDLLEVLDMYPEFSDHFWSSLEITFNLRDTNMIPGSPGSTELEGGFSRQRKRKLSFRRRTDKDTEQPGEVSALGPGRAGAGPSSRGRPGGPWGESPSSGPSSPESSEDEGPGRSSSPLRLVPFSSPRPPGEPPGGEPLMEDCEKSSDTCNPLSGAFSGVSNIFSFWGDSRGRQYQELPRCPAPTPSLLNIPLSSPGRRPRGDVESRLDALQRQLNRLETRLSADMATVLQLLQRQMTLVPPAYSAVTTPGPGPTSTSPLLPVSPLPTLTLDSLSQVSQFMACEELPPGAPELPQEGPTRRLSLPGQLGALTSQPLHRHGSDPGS
Source text: Experimental Platform: Electrophysiological Manual Patch-Clamp System
Cell line: Chinese hamster ovary (CHO) cell line stably expressing hERG potassium ion channel
Experimental method: CHO (Chinese Hamster Ovary) cells stably expressing hERG potassium channel were subjected to a whole cell patch-clamp technique to record the hERG potassium channel current at room temperature. The glass microelectrode was made of a glass electrode blank (BF150-86-10, Sutter) by a puller. The tip resistance after filling the liquid in the electrode was about 2-5 MQ. The glass microelectrode can be connected to the patch-clamp amplifier by inserting the glass microelectrode into an amplifier probe. The clamping voltage and data recording were controlled and recorded by the pClamp 10 software through a computer. The sampling frequency was 10 kHz, and the filtering frequency was 2 kHz. After the whole cell records were obtained, the cells were clamped at −80 mV, and the step voltage that induced the hERG potassium current (IhERG) was depolarized from −80 mV to +20 mV for 2 s, then repolarized to −50 mV, and returned to −80 mV after 1 s. This voltage stimulation was given every 10 s, and the administration process was started after the hERG potassium current was confirmed to be stable (at least 1 minute). The compound was administered for at least 1 minute at each test concentration, and at least 2 cells (n: 2) were tested at each concentration.
Data processing: Data analysis processing was carried out by using pClamp 10, GraphPad Prism 5, and Excel software. The degree of inhibition on the hERG potassium current (peak value of hERG tail current induced at −50 mV) at different compound concentrations was calculated by the following formula:
[formula] • where Inhibition % represents the percentage inhibition of the compound on the hERG potassium current, and I and Io represent the amplitude of the hERG potassium current after and before administration, respectively.
Compound IC50 was calculated using GraphPad Prism 5 software by fitting according to the following equation: […]

T1 sequence (Q07343 whole entry): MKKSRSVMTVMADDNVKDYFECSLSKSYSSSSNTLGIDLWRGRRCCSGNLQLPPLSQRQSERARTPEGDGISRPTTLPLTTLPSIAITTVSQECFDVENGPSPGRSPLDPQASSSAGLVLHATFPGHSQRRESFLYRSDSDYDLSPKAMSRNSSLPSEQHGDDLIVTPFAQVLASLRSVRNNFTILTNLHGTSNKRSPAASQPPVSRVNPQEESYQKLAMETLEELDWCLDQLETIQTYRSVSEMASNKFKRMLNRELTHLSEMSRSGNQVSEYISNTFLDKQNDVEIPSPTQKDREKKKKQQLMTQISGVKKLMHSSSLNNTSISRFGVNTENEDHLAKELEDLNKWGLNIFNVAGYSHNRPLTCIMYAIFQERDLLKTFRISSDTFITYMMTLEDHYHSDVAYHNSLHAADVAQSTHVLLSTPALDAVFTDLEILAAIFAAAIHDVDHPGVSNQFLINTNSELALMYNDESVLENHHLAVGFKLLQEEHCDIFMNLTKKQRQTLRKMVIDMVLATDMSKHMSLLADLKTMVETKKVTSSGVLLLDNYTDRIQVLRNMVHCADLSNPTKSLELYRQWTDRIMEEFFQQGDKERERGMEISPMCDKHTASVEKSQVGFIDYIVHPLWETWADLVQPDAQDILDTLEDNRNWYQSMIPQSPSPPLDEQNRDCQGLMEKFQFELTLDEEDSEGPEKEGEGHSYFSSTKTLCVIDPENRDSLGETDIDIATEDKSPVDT

IC50 (PDE4B1): < 0.01 µM | IC50 (PDE4D2): < 0.01 µM
SMILES: [O-][S@+]1CCc2nc(N3CCC=C(c4ncc(Cl)cn4)CC3)nc(NC3(CO)CCC3)c21 [Compound 34]
IC50 [1]: 13.6 µM
